# Structures can show the parent of a compound that is named as a salt. Where two headings read alike, the source gives them in different places.
# Key:
# Lewis Lung Carcinoma = experiment: In vivo efficacy, 3LL32 subcutaneously implanted Lewis Lung Carcinoma; parameters: species or system mouse; settings: i.p.
# Method: (§1) Moreover, the in vivo efficacy of the compound of the invention prepared in Example I was tested according to protocols adopted from the "Developmental Therapeutics Program, Division of Cancer Treatment, National Cancer Institute", NIH Publication 84-2635, using the following animal models: (1) 3B131 Intraperitoneally (i.p.) implanted B16 Melanoma; (2) 3B132 Subcutaneously (s.c.) implanted B16 Melanoma: and (3) 3LL32 Subcutaneously (s.c.) implanted Lewis Lung Carcinoma. Results according to the following table were obtained.
# [1] = tested on: leukemic cells from six myeloid leukemic patients and promyelocytic cell line HL-60 (which one is not stated); experiment: Induction of cytodifferentiation, reduction of nitro blue tetrazolium (NBT); assay type: cell-based; settings: 0.15 mM
# Method: (c) Induction of cytodifferentiation. This was evaluated by reduction of nitro blue tetrazolium (NBT), which is indicative of functional maturity of leucocytes.
# [2] = tested on: leukemic cells from six myeloid leukemic patients; experiment: Inhibition of cell proliferation, tritiated thymidine incorporation, cells (i); assay type: cell-based, human
# Method: (§2) The compound of the invention prepared in Example I gave the results indicated in paragraphs (a), (b) and (c), below, when tested on: (i) leukemic cells from six myeloid leukemic patients, and (ii) promyelocytic cell line HL-60.
# (b) Inhibition of cell proliferation. This was evaluated by inhibition of tritiated thymidine incorporation. The results in the following table are self-explanatory: […]
# [3] = tested on: promyelocytic cell line HL-60; experiment: Cytotoxicity, viability of cells 60 hours after exposure, Trypan Blue exclusion, cells (ii); assay type: cell-based; settings: Homo sapiens, read-out: Concentration which resulted in 50% inhibition (LD50), viability
# Method: as §2
# (§3) (a) Cytotoxicity. The viability of the cells 60 hours after exposure was determined by Trypan Blue exclusion.
# mouse spleen cells = experiment: Colony stimulating factors (CSF) production by murine splenocytes, CFU-GM from BALB/c mouse bone marrow; assay type: cell-based; settings: for CSF production, %: ConA = 100
# Method: (§4) CSF activity was assayed by the ability of the supernatants from these cultures to support development on semisolid agar of CFU-GM (colony forming units--granulocytes and macrophages) from bone marrow cells of BALB/c mice.
# B16 Melanoma [4] = experiment: In vivo efficacy, 3B131 intraperitoneally implanted B16 Melanoma; parameters: species or system mouse; settings: i.p., 1-9 days, daily
# human lymphocytes = experiment: Colony stimulating factors (CSF) production by human lymphocytes, CFU-GM from BALB/c mouse bone marrow; assay type: cell-based; settings: for CSF production, # CFU-GM / CSF production, %: 72 hours incubation; for CSF production, %: PHA = 100
# Method: as §4
# [5] = tested on: leukemic cells from six myeloid leukemic patients; experiment: Cytotoxicity, viability of cells 60 hours after exposure, Trypan Blue exclusion, cells (i); assay type: cell-based; settings: Homo sapiens, read-out: Concentration which resulted in 50% inhibition (LD50), viability
# Method: as §2, §3
# B16 Melanoma [6] = experiment: In vivo efficacy, 3B132 subcutaneously implanted B16 Melanoma; settings: 125 mg./kg./mouse, i.p.; 1-6 days, daily
# Method: as §1
# [7] = tested on: promyelocytic cell line HL-60; experiment: Inhibition of cell proliferation, tritiated thymidine incorporation, cells (ii); assay type: cell-based; settings: for inhibition at 500 µM: Homo sapiens
# Method: as §2
# (b) Inhibition of cell proliferation. This was evaluated by inhibition of tritiated thymidine incorporation. The results in the following table are self-explanatory:
# In a further experiment, cells (ii) were incubated with the compound of Example I or with sodium butyrate. After a period of time as specified in the following table, the agents were removed by washing the cells, and thymidine incorporation was measured 15 hours after the end of incubation.
# [8] = Therapeutic index (LD50/ED50), standard procedures; settings: in vivo
# [9] = tested on: leukemic cells isolated from myelogenous leukemic patients
# [10] = in vivo; cited from earlier work
# [11] = tested on: colony forming units, granulocytes and macrophages (CFU-GM); settings: CFU-GM in soft agar; normal bone marrow and peripheral blood of leukemic patients; unpublished work; cited from earlier work
# [12] = cited from earlier work
# [13] = tested on: acute myelogenous leukemia; settings: human, in vivo
# variety of tumor cells = settings: induction of morphological and biochemical changes; cited from earlier work
# [14] = cited from earlier work; remark: listed apart in the source
# [15] = tested on: refractory acute myelogenous leukemia; settings: 0.5 g./kg./day; cited from earlier work
# neuroblastoma = settings: doses of up to 10 g./day; cited from earlier work
# [16] = Activity of hydrolysis product under conditions in which the parent compound was active; settings: conditions in which the parent compound (Example I) was active
# Source text: It is postulated that the butyrate esters provided by the invention undergo intracellular hydrolysis to butyric acid; the residual fragments of the hydrolysis would be non-toxic. […] An alternative metabolic route may involve (where appropriate) the oxidation of butyrates to hydroxy-butyrates and/or oxo-butyrates.
# [17] = Experiment 1, 20 μM, 24 hours incubation
smiles,measurement,setting,value
"CCCC(=O)OCOC(=O)C(C)(C)C [Example I, Pivaloyloxymethyl butyrate]",ILS (increased life span compared to untreated animals),"Lewis Lung Carcinoma; 125 mg./kg./mouse, 1-6 days, daily",152%
same,ILS (increased life span compared to untreated animals),"Lewis Lung Carcinoma; 125 mg./kg./mouse, 1-18 days, every odd day",186%
same,NBT reduction (% of positive cells),[1]; incubation 24 hours,24 % of positive cells
same,NBT reduction (% of positive cells),[1]; incubation 48 hours,49 % of positive cells
same,NBT reduction (% of positive cells),[1]; incubation 72 hours,66 % of positive cells
same,NBT reduction (% of positive cells),[1]; incubation 96 hours,77 % of positive cells
same,inhibition at 100 µM,"[2]; Homo sapiens, 0.1 mM, 15 hrs. exposure",88%
same,inhibition at 200 µM,"[2]; Homo sapiens, 0.2 mM, 15 hrs. exposure",99%
same,IC50,[3],100 µM
same,"CSF production, # CFU-GM",mouse spleen cells; [17],11 # CFU-GM
same,"CSF production, %",mouse spleen cells; [17],10%
same,"CSF production, %","mouse spleen cells; Experiment 1, 50 μM, 24 hours incubation",0%
same,CSF production (in words),mouse spleen cells; murine lymphocytes,stimulates CSF production
same,ILS (increased life span compared to untreated animals),B16 Melanoma [4]; 250 mg./kg./mouse,154%
same,"CSF production, # CFU-GM","human lymphocytes; Experiment 1, 20 μM",10 # CFU-GM
same,"CSF production, %","human lymphocytes; Experiment 1, 20 μM",33%
same,"CSF production, # CFU-GM","human lymphocytes; Experiment 1, 50 μM",3 # CFU-GM
same,"CSF production, %","human lymphocytes; Experiment 1, 50 μM",10%
same,"CSF production, # CFU-GM","human lymphocytes; Experiment 2, 20 μM",43 # CFU-GM
same,"CSF production, %","human lymphocytes; Experiment 2, 20 μM",105%
same,"CSF production, # CFU-GM","human lymphocytes; Experiment 2, 50 μM",16 # CFU-GM
same,"CSF production, %","human lymphocytes; Experiment 2, 50 μM",39%
same,CSF production (in words),human lymphocytes; human lymphocytes,stimulates CSF production
same,IC50,[5],150 µM
same,ILS (increased life span compared to untreated animals),B16 Melanoma [6],150%
same,inhibition at 500 µM,"[7]; HL-60, 0.5 mM, incubation 0.5 hours, washed, measured 15 hours after end of incubation, read-out: % inhibition of tritiated thymidine incorporation",52%
same,inhibition at 500 µM,"[7]; HL-60, 0.5 mM, incubation 3.0 hours, washed, measured 15 hours after end of incubation, read-out: % inhibition of tritiated thymidine incorporation",92%
same,inhibition at 500 µM,"[7]; HL-60, 0.5 mM, incubation 16.0 hours, washed, measured 15 hours after end of incubation, read-out: % inhibition of tritiated thymidine incorporation",99%
same,inhibition at 500 µM,"[7]; HL-60, 0.5 mM, incubation 24.0 hours, washed, measured 15 hours after end of incubation, read-out: % inhibition of tritiated thymidine incorporation",99%
same,inhibition at 500 µM,"[7]; HL-60, 0.5 mM, incubation 48.0 hours, washed, measured 15 hours after end of incubation, read-out: % inhibition of tritiated thymidine incorporation",99%
same,inhibition at 500 µM,"[7]; HL-60, 0.5 mM, incubation 62.0 hours, washed, measured 15 hours after end of incubation, read-out: % inhibition of tritiated thymidine incorporation",99%
same,inhibition at 500 µM,"[7]; HL-60, 0.5 h, cells (ii), 0.5 mM, 0.5 hr. exposure, read-out: % inhibition of tritiated thymidine incorporation",52%
same,inhibition at 500 µM,"[7]; HL-60, 15 h, cells (ii), 0.5 mM, 15 hrs. exposure, read-out: % inhibition of tritiated thymidine incorporation",99%
same,selectivity ratio,[8],15 to 20
"CCCC(=O)O [butyric acid/salts, butyric acid]",inhibition of tritiated thymidine incorporation (in words),"[2]; 24 hours, up to 2 mM",no inhibition
same,IC50,[3],400 µM
same,cytotoxic and cytodifferentiating potency (in words),[9],the most potent cytotoxic and cytodifferentiating agent
same,clearance (in words),[10],high clearance
same,metabolization (in words),[10],rapid metabolization
same,selectivity (in words),[11],selectivity of butyric acid/salts was demonstrated
same,induction period,[12]; in vitro,48 h
same,induction period,[12]; in vivo,96 to 120 h
same,adverse reaction (in words),[13],no adverse reaction
same,anti-tumor activity (in words),variety of tumor cells,anti-tumor activity
same,toxicity (in words),[14]; high dosages,no toxicity
same,fluid overload and alkalosis (in words),"[14]; human, in vivo",fluid overload and mild alkalosis may occur
same,IC50,[5],1000 µM
same,remission (in words),[15],partial and temporary remission
same,toxic effects (in words),[15],without detectable toxic effects
same,inhibition of tritiated thymidine incorporation (in words),"[7]; cells (ii), 24 hours, up to 1 mM",no inhibition
same,toxicity (in words),neuroblastoma,no clinically detectable toxicity
"N.N.[Cl][Pt][Cl] [cisplatin, reference compound]",ILS (increased life span compared to untreated animals),B16 Melanoma [4]; 1.5 mg./kg./mouse,164%
"O=P1(N(CCCl)CCCl)NCCCO1 (stereo not shown) [cytoxan, reference compound]",ILS (increased life span compared to untreated animals),"Lewis Lung Carcinoma; 100 mg./kg./mouse, day 1 only",152%
CC(C)(C)C(=O)O [pivalic acid],activity (in words),[16],shows no activity
"CCCC(=O)[O-].[Na+] [sodium butyrate, reference compound]",NBT reduction (% of positive cells),[1]; incubation 24 hours,11 % of positive cells
same,NBT reduction (% of positive cells),[1]; incubation 48 hours,29 % of positive cells
same,NBT reduction (% of positive cells),[1]; incubation 72 hours,48 % of positive cells
same,NBT reduction (% of positive cells),[1]; incubation 96 hours,66 % of positive cells
same,inhibition at 500 µM,"[7]; HL-60, read-out: % inhibition of tritiated thymidine incorporation, 0.5 mM, incubation 0.5 hours, washed, measured 15 hours after end of incubation",0%
same,inhibition at 500 µM,"[7]; HL-60, read-out: % inhibition of tritiated thymidine incorporation, 0.5 mM, incubation 3.0 hours, washed, measured 15 hours after end of incubation",0%
same,inhibition at 500 µM,"[7]; HL-60, read-out: % inhibition of tritiated thymidine incorporation, 0.5 mM, incubation 16.0 hours, washed, measured 15 hours after end of incubation",0%
same,inhibition at 500 µM,"[7]; HL-60, read-out: % inhibition of tritiated thymidine incorporation, 0.5 mM, incubation 24.0 hours, washed, measured 15 hours after end of incubation",22%
same,inhibition at 500 µM,"[7]; HL-60, read-out: % inhibition of tritiated thymidine incorporation, 0.5 mM, incubation 48.0 hours, washed, measured 15 hours after end of incubation",50%
same,inhibition at 500 µM,"[7]; HL-60, read-out: % inhibition of tritiated thymidine incorporation, 0.5 mM, incubation 62.0 hours, washed, measured 15 hours after end of incubation",94%

# Source: patent publication US5200553A, “Biologically active carboxylic acid esters” (Kupat Holim Health Insurance Institution of the General …, priority 1987, dated 1993)
